Where two headings read alike, the source gives them in different places.
Tests used:
[1] = pH-dependent aqueous solubility of BUP in 250 mM ammonium sulfate; type: physicochemical; conditions: more concentrated solutions, pH higher than about 6
Description: In the present case, the liposomes were incubated with a 50 mg/ml solution of BUP HCl for 45 minutes at 60° C. During this process, the extraliposomal pH should be maintained at a pH less than about 6, e.g. about 5.5, to ensure BUP solubility and prevent precipitation. […] The data was produced by adding various levels of BUP, as indicated, to 250 mM ammonium sulfate at differing pH's. The samples were vortexed and centrifuged, and the amount of dissolved BUP in the supernatant was determined. […] Again, aqueous solubility substantially decreases between pH 6 and 8.

mice [2] = test: Tolerability of BUP concentration injected subcutaneously; conditions: 0.15 ml injected
Description: (§2) In a control group, mice were injected with 0.15 ml nonliposomal bupivacaine at a concentration of 0.5%, the highest normally tolerated. Cooling was applied either over the injection site or over the abdomen contralateral to the injection site.

mice [3] = conditions: mouse, in vivo
Description: (§1) Analgesia regressed within two hours (see FIG. 13).
To determine the effect on overall body temperature of this treatment, the rectal temperature was measured in all animals cooled over the site of injection (ipsalateral) or over the contralateral abdomen, using both GMV-encapsulated bupivacaine and nonencapsulated (plain) bupivacaine. […] For FIG. 14A, cooling was initiated at zero hours (with administration) and discontinued at nine hours; for FIG. 14B, cooling was initiated at zero hours and discontinued at one hour. There were no significant differences observed as a function of the site of cooling. […] Animals in the GMV group (FIG. 14A) returned to baseline body temperature within about 10 minutes after cessation of cooling.

[4] = BUP partition between octanol and aqueous ammonium sulfate at various pH; type: physicochemical; conditions: for logD: octanol/aqueous ammonium sulfate, read-out: BUP octanol/(NH4)2(SO4) partition coefficient (converted)
mice [5] = conditions: mouse, in vivo, sc
Description: as §2

male Swiss-Webster mice = test: Analgesia (sensory block) after subcutaneous injection, response to cutaneous electrical stimulation; type: in vivo; conditions: 0.15 ml at 0.5%
Description: Analgesia was assessed in male Swiss-Webster mice, as described in Example 2, using response to cutaneous electrical stimulation. Prior to administering analgesic, the control vocalization threshold (current required to produce a vocalization response) was determined.
For testing, 150 μl of test solution was injected subcutaneously over the abdomen, and sensory block was assessed at regular intervals, i.e., 15 min for 0.5% BUP formulations and 30 min for 1% and 2% formulations. Failure to vocalize in response to the threshold current was taken as evidence of analgesia. Testing was terminated when two successive stimuli provoked a vocalization. Duration of analgesia was taken as the time from injection to the last stimulus at which no vocalization occurred.
as §1
The Institutional Animal Care and Use Committee approved all experiments. Male Swiss-Webster mice weighing 28±3 g were used. Animals had free access to food and water, and were maintained on a 12 hour dark-light cycle. Prior to testing, the hair overlying the abdomen was shaved. Analgesia was assessed using response to cutaneous electrical stimulation. […] The vocalization threshold was assessed prior to testing, and testing was carried out as described above.

CCCCN1CCCCC1C(=O)Nc1c(C)cccc1C (stereo not drawn) [BUP, bupivacaine]
aqueous solubility of BUP (FIG. 2) [1]: large amounts of BUP precipitated
highest concentration normally tolerated (mice [2]): 0.5%
delayed return to normal body temperature after cessation of cooling (mice [3]): 25 to 35 min
logD ([4]; pH 2): 0.0253
logD ([4]; pH 4): -0.42
logD ([4]; pH 6): -0.456
logD ([4]; pH 8): 1.18
BUP, mg/ml in (NH4)2(SO4) ([4]; pH 2): 2.30 mg/mL
BUP, mg/ml in octanol ([4]; pH 2): 2.45 mg/mL
BUP, mg/ml in (NH4)2(SO4) ([4]; pH 4): 3.32 mg/mL
BUP, mg/ml in octanol ([4]; pH 4): 1.25 mg/mL
BUP, mg/ml in (NH4)2(SO4) ([4]; pH 6): 3.62 mg/mL
BUP, mg/ml in octanol ([4]; pH 6): 1.28 mg/mL
BUP, mg/ml in (NH4)2(SO4) ([4]; pH 8): 0.32 mg/mL
BUP, mg/ml in octanol ([4]; pH 8): 4.90 mg/mL
toxicity (mice [5]): proved toxic
time in which analgesia regressed (male Swiss-Webster mice; s.c., mice, with or without cooling (FIG. 13)): two
effect of skin cooling (about 22° C.) on analgesia (male Swiss-Webster mice; cooling at injection site or contralateral vs no cooling): no difference
